Measurements: patent EP4745135A1 (Gluetacs Therapeutics (Shanghai) Co., Ltd., priority 2023, dated 2025)

Legend:
CK1α = biological target: T1, CK1α (Homo sapiens, UniProt P48729+Q96SW2); assay: Western blot, degradation of substrate protein in hPBMCs; format: cell-based
T1 construct: effects of the compounds of the present disclosure on the expression of target proteins in cells; endogenous in cells; host or cells: human PBMCs (Milecell Biotechnologies)

IKZF1 = biological target: T2, IKZF1 (Homo sapiens, UniProt Q13422+Q96SW2); assay: as above; format: cell-based
T2 construct: effects of the compounds of the present disclosure on the expression of target proteins in cells; endogenous in cells; host or cells: human PBMCs (Milecell Biotechnologies)
T2 sequence (Q13422 whole entry): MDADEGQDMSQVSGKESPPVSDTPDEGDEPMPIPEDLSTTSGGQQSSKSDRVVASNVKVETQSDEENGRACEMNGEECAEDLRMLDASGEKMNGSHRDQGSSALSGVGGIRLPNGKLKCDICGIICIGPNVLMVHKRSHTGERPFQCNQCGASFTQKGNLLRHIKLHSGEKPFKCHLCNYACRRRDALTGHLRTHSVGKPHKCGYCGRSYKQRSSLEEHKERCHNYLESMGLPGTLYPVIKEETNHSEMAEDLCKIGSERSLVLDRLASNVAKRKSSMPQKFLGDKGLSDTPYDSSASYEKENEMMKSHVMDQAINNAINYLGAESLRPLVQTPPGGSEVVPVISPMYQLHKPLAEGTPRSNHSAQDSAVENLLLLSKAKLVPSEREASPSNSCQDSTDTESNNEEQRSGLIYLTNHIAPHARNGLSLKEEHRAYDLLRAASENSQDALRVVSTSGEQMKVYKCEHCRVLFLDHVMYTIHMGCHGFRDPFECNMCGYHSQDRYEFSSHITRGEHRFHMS
T2 sequence (Q96SW2 whole entry): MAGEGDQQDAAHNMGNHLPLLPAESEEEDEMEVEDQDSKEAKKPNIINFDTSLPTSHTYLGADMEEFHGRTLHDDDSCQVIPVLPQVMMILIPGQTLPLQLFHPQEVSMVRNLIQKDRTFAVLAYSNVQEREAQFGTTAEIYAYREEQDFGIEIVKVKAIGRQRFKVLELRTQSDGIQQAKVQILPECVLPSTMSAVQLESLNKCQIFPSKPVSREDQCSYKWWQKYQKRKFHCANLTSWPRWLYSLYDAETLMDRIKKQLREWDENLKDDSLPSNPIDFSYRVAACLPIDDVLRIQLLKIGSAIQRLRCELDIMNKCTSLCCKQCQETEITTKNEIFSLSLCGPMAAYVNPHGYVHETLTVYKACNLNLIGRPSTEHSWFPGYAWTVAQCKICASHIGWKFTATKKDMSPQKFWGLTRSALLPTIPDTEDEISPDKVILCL
T2 sequence (Q16531 whole entry partner): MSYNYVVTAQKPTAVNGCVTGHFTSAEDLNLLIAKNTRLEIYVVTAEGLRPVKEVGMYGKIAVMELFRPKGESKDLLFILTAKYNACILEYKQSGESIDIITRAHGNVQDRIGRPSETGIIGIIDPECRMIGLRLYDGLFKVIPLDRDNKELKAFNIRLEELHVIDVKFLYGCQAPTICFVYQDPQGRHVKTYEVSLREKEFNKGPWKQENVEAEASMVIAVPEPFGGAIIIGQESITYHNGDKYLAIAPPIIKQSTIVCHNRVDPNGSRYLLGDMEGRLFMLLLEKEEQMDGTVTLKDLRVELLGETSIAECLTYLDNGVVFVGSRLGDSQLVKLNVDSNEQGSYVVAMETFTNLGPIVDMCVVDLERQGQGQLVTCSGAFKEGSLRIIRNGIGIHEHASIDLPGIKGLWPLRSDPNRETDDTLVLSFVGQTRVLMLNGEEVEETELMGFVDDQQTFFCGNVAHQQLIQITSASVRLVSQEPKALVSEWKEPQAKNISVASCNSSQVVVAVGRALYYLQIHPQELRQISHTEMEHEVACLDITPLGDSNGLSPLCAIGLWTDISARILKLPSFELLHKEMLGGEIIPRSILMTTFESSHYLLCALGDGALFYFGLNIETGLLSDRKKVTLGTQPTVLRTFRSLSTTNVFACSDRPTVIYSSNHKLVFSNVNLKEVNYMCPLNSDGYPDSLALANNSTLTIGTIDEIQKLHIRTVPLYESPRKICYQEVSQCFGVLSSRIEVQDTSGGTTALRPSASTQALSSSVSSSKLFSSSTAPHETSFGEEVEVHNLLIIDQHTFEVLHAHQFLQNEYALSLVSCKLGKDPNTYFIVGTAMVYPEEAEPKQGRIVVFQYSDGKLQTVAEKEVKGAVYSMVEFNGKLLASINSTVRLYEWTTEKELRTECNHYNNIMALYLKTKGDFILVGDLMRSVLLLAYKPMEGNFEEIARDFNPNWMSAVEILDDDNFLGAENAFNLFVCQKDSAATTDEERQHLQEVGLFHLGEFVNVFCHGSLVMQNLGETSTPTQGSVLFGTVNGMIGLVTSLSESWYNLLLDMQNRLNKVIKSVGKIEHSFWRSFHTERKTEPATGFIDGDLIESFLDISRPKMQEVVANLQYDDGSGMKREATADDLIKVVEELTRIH

IKZF2 = biological target: T3, IKZF2 (Homo sapiens, UniProt Q96SW2+Q9UKS7); assay: as above; format: cell-based
T3 construct: effects of the compounds of the present disclosure on the expression of target proteins in cells; endogenous in cells; host or cells: human PBMCs (Milecell Biotechnologies)
T3 sequence (Q9UKS7 whole entry): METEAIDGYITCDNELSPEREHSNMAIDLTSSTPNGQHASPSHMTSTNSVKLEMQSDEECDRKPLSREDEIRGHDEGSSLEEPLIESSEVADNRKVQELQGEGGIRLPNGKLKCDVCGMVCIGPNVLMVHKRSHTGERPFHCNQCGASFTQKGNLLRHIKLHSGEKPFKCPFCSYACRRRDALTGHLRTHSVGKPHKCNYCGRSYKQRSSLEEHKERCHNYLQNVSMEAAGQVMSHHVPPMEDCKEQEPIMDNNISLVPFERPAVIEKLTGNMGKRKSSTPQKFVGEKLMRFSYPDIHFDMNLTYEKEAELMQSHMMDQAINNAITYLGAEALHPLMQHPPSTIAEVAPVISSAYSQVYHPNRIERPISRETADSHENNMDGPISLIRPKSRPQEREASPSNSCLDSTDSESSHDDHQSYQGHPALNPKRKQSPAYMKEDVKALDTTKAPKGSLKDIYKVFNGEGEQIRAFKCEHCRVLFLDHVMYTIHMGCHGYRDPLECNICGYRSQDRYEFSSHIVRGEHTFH
T3 sequence (Q96SW2 whole entry): as the sequence (Q96SW2 whole entry) above
T3 sequence (Q16531 whole entry partner): as the sequence (Q16531 whole entry partner) above

IKZF3 = biological target: T4, IKZF3 (Homo sapiens, UniProt Q96SW2+Q9UKT9); assay: as above; format: cell-based
T4 construct: effects of the compounds of the present disclosure on the expression of target proteins in cells; endogenous in cells; host or cells: human PBMCs (Milecell Biotechnologies)
T4 sequence (Q9UKT9 whole entry): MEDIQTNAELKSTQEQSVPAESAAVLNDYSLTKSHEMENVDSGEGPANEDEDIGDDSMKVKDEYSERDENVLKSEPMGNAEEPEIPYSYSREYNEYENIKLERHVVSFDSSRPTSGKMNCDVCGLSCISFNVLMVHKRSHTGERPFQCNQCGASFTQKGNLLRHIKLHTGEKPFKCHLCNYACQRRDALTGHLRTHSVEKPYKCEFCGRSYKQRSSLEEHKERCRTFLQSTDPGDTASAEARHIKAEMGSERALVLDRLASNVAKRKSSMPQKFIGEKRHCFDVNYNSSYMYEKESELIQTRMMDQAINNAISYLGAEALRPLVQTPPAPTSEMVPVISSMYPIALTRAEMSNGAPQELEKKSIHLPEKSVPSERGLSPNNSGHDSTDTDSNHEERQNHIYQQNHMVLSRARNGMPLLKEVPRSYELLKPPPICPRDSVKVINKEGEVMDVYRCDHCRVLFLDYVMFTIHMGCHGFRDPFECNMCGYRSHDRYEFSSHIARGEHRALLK
T4 sequence (Q96SW2 whole entry): as the sequence (Q96SW2 whole entry) above
T4 sequence (Q16531 whole entry partner): as the sequence (Q16531 whole entry partner) above

WEE1 = biological target: T5, WEE1 (Homo sapiens, UniProt P30291+Q96SW2); assay: as above; format: cell-based
T5 construct: effects of the compounds of the present disclosure on the expression of target proteins in cells; endogenous in cells; host or cells: human PBMCs (Milecell Biotechnologies)
T5 sequence (P30291 whole entry): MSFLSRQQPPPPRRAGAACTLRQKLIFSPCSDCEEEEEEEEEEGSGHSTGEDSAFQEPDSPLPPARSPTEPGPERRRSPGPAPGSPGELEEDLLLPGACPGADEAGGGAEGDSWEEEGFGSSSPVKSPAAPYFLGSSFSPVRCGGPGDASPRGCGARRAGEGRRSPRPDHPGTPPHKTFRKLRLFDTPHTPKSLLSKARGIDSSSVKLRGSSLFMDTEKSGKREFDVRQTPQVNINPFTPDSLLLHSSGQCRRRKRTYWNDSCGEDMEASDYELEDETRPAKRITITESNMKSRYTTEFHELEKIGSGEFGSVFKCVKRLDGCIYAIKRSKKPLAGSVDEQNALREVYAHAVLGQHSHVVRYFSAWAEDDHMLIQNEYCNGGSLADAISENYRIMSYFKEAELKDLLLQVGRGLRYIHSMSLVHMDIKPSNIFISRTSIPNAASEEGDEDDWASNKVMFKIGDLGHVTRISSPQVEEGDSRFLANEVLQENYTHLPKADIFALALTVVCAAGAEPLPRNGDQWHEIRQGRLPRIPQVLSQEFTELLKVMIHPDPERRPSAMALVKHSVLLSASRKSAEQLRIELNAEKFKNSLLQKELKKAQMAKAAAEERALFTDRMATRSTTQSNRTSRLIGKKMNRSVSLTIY
T5 sequence (Q96SW2 whole entry): as the sequence (Q96SW2 whole entry) above
T5 sequence (Q16531 whole entry partner): as the sequence (Q16531 whole entry partner) above

GSPT1 = assay: as above; format: cell-based, Human
[1] = biological target: T6, human Cereblon WT GST-tagged protein (Homo sapiens, UniProt Q96SW2); assay: CRBN-binding affinity, HTRF (CEREBLON BINDING kit); settings: for inhibition at 0.5 µM: read-out: Inhibition Rate at 0.5 µM (%); for inhibition at 2 µM: read-out: Inhibition Rate at 2 µM (%)
T6 construct: purchased CISBIO 64BDCRBNPEH
T6 sequence (Q96SW2 whole entry): as the sequence (Q96SW2 whole entry) above

[2] = system: Human multiple myeloma cell (MM.1S); assay: Tumor cell proliferation inhibition (CellTiter-Meiluncell luminescent cell viability assay); settings: for inhibition at 0.5 µM: read-out: Inhibition Rate at 500 nM (%); for inhibition at 0.01 µM: read-out: Inhibition Rate at 10 nM (%)
[3] = Western blot, 24 hours of compound treatment, compounds tested at 50 nM and 500 nM (concentration for the table not stated)
[4] = 24 hours treatment, compounds at 50 nM and 500 nM (concentration behind the class not stated)

T1 sequence (P48729 whole entry): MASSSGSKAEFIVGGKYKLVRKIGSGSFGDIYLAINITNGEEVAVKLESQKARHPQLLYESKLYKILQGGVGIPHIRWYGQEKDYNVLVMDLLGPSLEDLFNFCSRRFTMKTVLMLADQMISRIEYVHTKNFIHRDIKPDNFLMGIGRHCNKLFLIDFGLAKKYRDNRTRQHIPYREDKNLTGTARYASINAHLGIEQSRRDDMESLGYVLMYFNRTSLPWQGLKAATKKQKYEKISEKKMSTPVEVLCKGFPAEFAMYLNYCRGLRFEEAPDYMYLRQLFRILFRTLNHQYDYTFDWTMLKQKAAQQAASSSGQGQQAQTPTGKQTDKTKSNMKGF
T1 sequence (Q96SW2 whole entry): as the sequence (Q96SW2 whole entry) above
T1 sequence (Q16531 whole entry partner): as the sequence (Q16531 whole entry partner) above

| SMILES | inhibition at 0.5 µM [1] [%] | inhibition at 2 µM [1] [%] | CK1α substrate protein remaining % (CK1α; [3]) | IKZF 1 substrate protein remaining % (IKZF1; [3]) | IKZF2 substrate protein remaining % (IKZF2; [3]) | IKZF3 substrate protein remaining % (IKZF3; [3]) | Wee1 substrate protein remaining % (WEE1; [3]) | GSPT1 substrate protein remaining % (GSPT1; [3]) | inhibition at 0.5 µM ([2]; Homo sapiens, MM1.S, 96 h) [%] | Inhibition Rate at 10 nM (%) ([2]; MM.1S, 10 nM, 96 hours) [la6] | IC50 ([1]; CRBN binding, HTRF, 3 hours at room temperature, read-out: HTRF IC50) [nM] | IC50 ([2]; Homo sapiens, MM1.S, 96 h, read-out: Inhibitory activity (IC50, nM) on tumor cell proliferation, MM.1S) [nM] | inhibition at 0.01 µM ([2]; Homo sapiens, MM1.S, 96 h) [%] | CK1α substrate protein remaining % (CK1α; [4]) | IKZF 1 substrate protein remaining % (IKZF1; [4]) | IKZF2 substrate protein remaining % (IKZF2; [4]) | IKZF3 substrate protein remaining % (IKZF3; [4]) | Wee1 substrate protein remaining % (WEE1; [4]) | GSPT1 substrate protein remaining % (GSPT1; [4]) | Inhibition Rate at 500 nM (%) ([2]; MM.1S, 500 nM, 96 hours) |
| --- | --- | --- | --- | --- | --- | --- | --- | --- | --- | --- | --- | --- | --- | --- | --- | --- | --- | --- | --- | --- |
| O=C1CCC(N2Cc3cc(CN4CCC(N5CCc6cc(F)ccc65)CC4)ccc3C2=S)C(=O)N1 (stereo not shown) [GT-05244, 3-(5-((4-(5-fluoroindolin-1-yl)piperidin-1-yl)methyl)-1-thioxoisoindolin-2-yl)piperidine-2,6-dione] | – | – | B (80%< substrate protein remaining %≤ 100%) | B (80%< substrate protein remaining %≤ 100%) | A (0% ≤ substrate protein remaining % ≤ 80%) | B (80%< substrate protein remaining %≤ 100%) | B (80%< substrate protein remaining %≤ 100%) | A (0% ≤ substrate protein remaining % ≤ 80%) | – | – | 100 to 500 | 100 to 500 | – | – | – | – | – | – | – | – |
| O=C1CCC(N2Cc3c(CN4CC=C(c5ncc6ccsc6n5)CC4)cccc3C2=S)C(=O)N1 (stereo not shown) [GT-08965, 3-(4-((4-(thieno[2,3-d]pyrimidin-2-yl)-3,6-dihydropyridin-1(2H)-yl)methyl)-1-thioxoisoindolin-2-yl)piperidine-2,6-dione] | 80 to 100 | 80 to 100 | – | – | – | – | – | – | 40 to 50 | – | – | – | 30 to 40 | – | – | – | – | – | – | – |
| O=C1CCC(N2Cc3c(CN4CCC(c5ccc(F)cc5)CC4)cccc3C2=S)C(=O)N1 (stereo not shown) [GT-08596, 3-(4-((4-(4-fluorophenyl)piperidin-1-yl)methyl)-1-thioxoisoindolin-2-yl)piperidine-2,6-dione] | – | – | B (80%< substrate protein remaining %≤ 100%) | B (80%< substrate protein remaining %≤ 100%) | A (0% ≤ substrate protein remaining % ≤ 80%) | B (80%< substrate protein remaining %≤ 100%) | A (0% ≤ substrate protein remaining % ≤ 80%) | B (80%< substrate protein remaining %≤ 100%) | 50 to 60 | – | – | – | 40 to 50 | – | – | – | – | – | – | – |
| O=C1CCC(N2Cc3c(CN4CCC(c5ccccc5F)CC4)cccc3C2=S)C(=O)N1 (stereo not shown) [GT-08595, 3-(4-((4-(2-fluorophenyl)piperidin-1-yl)methyl)-1-thioxoisoindolin-2-yl)piperidine-2,6-dione] | – | – | B (80%< substrate protein remaining %≤ 100%) | B (80%< substrate protein remaining %≤ 100%) | A (0% ≤ substrate protein remaining % ≤ 80%) | B (80%< substrate protein remaining %≤ 100%) | A (0% ≤ substrate protein remaining % ≤ 80%) | B (80%< substrate protein remaining %≤ 100%) | 50 to 60 | – | – | – | 40 to 50 | – | – | – | – | – | – | – |
| Cc1nc(C2=CCN(Cc3ccc4c(c3)CN(C3CCC(=O)NC3=O)C4=S)CC2)c2c(-c3ccccc3)csc2n1 (stereo not shown) [GT-09321, 3-(5-((4-(2-methyl-5-phenylthieno[2,3-d]pyrimidin-4-yl)-3,6-dihydropyridin-1(2H)-yl)methyl)-1-thioxoisoindolin-2-yl)piperidine-2,6-dione] | 53 to 60 | 80 to 100 | – | – | – | – | – | – | – | – | – | – | – | B (80%< substrate protein remaining %≤ 100%) | B (80%< substrate protein remaining %≤ 100%) | B (80%< substrate protein remaining %≤ 100%) | B (80%< substrate protein remaining %≤ 100%) | A (0% ≤ substrate protein remaining % ≤ 80%) | A (0% ≤ substrate protein remaining % ≤ 80%) | – |

Second part, led by results:

| inhibition at 0.5 µM [1] [%] | inhibition at 2 µM [1] [%] | SMILES | CK1α substrate protein remaining % (CK1α; [3]) | IKZF 1 substrate protein remaining % (IKZF1; [3]) | IKZF2 substrate protein remaining % (IKZF2; [3]) | IKZF3 substrate protein remaining % (IKZF3; [3]) | Wee1 substrate protein remaining % (WEE1; [3]) | GSPT1 substrate protein remaining % (GSPT1; [3]) | inhibition at 0.5 µM ([2]; Homo sapiens, MM1.S, 96 h) [%] | Inhibition Rate at 10 nM (%) ([2]; MM.1S, 10 nM, 96 hours) [la6] | IC50 ([1]; CRBN binding, HTRF, 3 hours at room temperature, read-out: HTRF IC50) [nM] | IC50 ([2]; Homo sapiens, MM1.S, 96 h, read-out: Inhibitory activity (IC50, nM) on tumor cell proliferation, MM.1S) [nM] | inhibition at 0.01 µM ([2]; Homo sapiens, MM1.S, 96 h) [%] | CK1α substrate protein remaining % (CK1α; [4]) | IKZF 1 substrate protein remaining % (IKZF1; [4]) | IKZF2 substrate protein remaining % (IKZF2; [4]) | IKZF3 substrate protein remaining % (IKZF3; [4]) | Wee1 substrate protein remaining % (WEE1; [4]) | GSPT1 substrate protein remaining % (GSPT1; [4]) | Inhibition Rate at 500 nM (%) ([2]; MM.1S, 500 nM, 96 hours) |
| --- | --- | --- | --- | --- | --- | --- | --- | --- | --- | --- | --- | --- | --- | --- | --- | --- | --- | --- | --- | --- |
| 53 to 60 | 80 to 100 | COc1cccc(N2CCN(Cc3ccc4c(c3)CN(C3CCC(=O)NC3=O)C4=S)CC2)c1 (stereo not shown) [GT-08237, 3-(5-((4-(3-methoxyphenyl)piperazin-1-yl)methyl)-1-thioxoisoindolin-2-yl)piperidine-2,6-dione] | B (80%< substrate protein remaining %≤ 100%) | B (80%< substrate protein remaining %≤ 100%) | B (80%< substrate protein remaining %≤ 100%) | B (80%< substrate protein remaining %≤ 100%) | B (80%< substrate protein remaining %≤ 100%) | A (0% ≤ substrate protein remaining % ≤ 80%) | 40 to 50 | 1 | – | – | – | – | – | – | – | – | – | – |
| 40 to 53 | 80 to 100 | O=C1CCC(N2Cc3cc(CN4CCC(c5cccc(C(F)(F)F)c5)CC4)ccc3C2=S)C(=O)N1 (stereo not shown) [GT-08623, 3-(1-thioxo-5-((4-(3-(trifluoromethyl)phenyl)piperidin-1-yl)methyl)isoindolin-2-yl)piperidine-2,6-dione] | B (80%< substrate protein remaining %≤ 100%) | B (80%< substrate protein remaining %≤ 100%) | A (0% ≤ substrate protein remaining % ≤ 80%) | B (80%< substrate protein remaining %≤ 100%) | B (80%< substrate protein remaining %≤ 100%) | B (80%< substrate protein remaining %≤ 100%) | 40 to 50 | – | – | – | 30 to 40 | – | – | – | – | – | – | – |
| 60 to 80 | 80 to 100 | O=C1CCC(N2Cc3cc(CN4CCC(C5CCOc6cc(F)ccc65)CC4)ccc3C2=S)C(=O)N1 (stereo not shown) [GT-09274, 3-(5-((4-(7-fluorochroman-4-yl)piperidin-1-yl)methyl)-1-thioxoisoindolin-2-yl)piperidine-2,6-dione] | – | – | – | – | – | – | 40 to 50 | – | – | – | 30 to 40 | – | – | – | – | – | – | – |
| 60 to 80 | 80 to 100 | O=C1CCC(N2Cc3c(CN4CCN(c5nsc6cc(F)ccc56)CC4)cccc3C2=S)C(=O)N1 (stereo not shown) [GT-08839, 3-(4-((4-(6-fluorobenzo[d]isothiazol-3-yl)piperazin-1-yl)methyl)-1-thioxoisoindolin-2-yl)piperidine-2,6-dione] | B (80%< substrate protein remaining %≤ 100%) | B (80%< substrate protein remaining %≤ 100%) | B (80%< substrate protein remaining %≤ 100%) | B (80%< substrate protein remaining %≤ 100%) | A (0% ≤ substrate protein remaining % ≤ 80%) | B (80%< substrate protein remaining %≤ 100%) | – | – | – | – | – | – | – | – | – | – | – | – |
| 53 to 60 | 80 to 100 | O=C1CCC(N2Cc3cc(CN4CCN(C(c5ccccc5)c5cccnc5)CC4)ccc3C2=S)C(=O)N1 (stereo not shown) [GT-07732, 3-(5-((4-(phenyl(pyridin-3-yl)methyl)piperazin-1-yl)methyl)-1-thioxoisoindolin-2-yl)piperidine-2,6-dione] | B (80%< substrate protein remaining %≤ 100%) | B (80%< substrate protein remaining %≤ 100%) | B (80%< substrate protein remaining %≤ 100%) | A (0% ≤ substrate protein remaining % ≤ 80%) | A (0% ≤ substrate protein remaining % ≤ 80%) | A (0% ≤ substrate protein remaining % ≤ 80%) | – | – | – | – | – | – | – | – | – | – | – | – |
| 60 to 80 | 80 to 100 | O=C1CCC(N2Cc3cc(CN4CCN(c5ncnc6sc(-c7ccccc7)cc56)CC4)ccc3C2=S)C(=O)N1 (stereo not shown) [GT-09296, 3-(5-((4-(6-phenylthieno[2,3-d]pyrimidin-4-yl)piperazin-1-yl)methyl)-1-thioxoisoindolin-2-yl)piperidine-2,6-dione] | – | – | – | – | – | – | – | – | – | – | 40 to 50 | – | – | – | – | – | – | la7 |
| 40 to 53 | 80 to 100 | Cn1cc(C2=CCN(Cc3cccc4c3CN(C3CCC(=O)NC3=O)C4=S)CC2)c2ccc(F)cc21 (stereo not shown) [GT-08493, 3-(4-((4-(6-fluoro-1-methyl-1H-indol-3-yl)-3,6-dihydropyridin-1(2H)-yl)methyl)-1-thioxoisoindolin-2-yl)piperidine-2,6-dione] | B (80%< substrate protein remaining %≤ 100%) | B (80%< substrate protein remaining %≤ 100%) | A (0% ≤ substrate protein remaining % ≤ 80%) | B (80%< substrate protein remaining %≤ 100%) | B (80%< substrate protein remaining %≤ 100%) | A (0% ≤ substrate protein remaining % ≤ 80%) | – | – | – | – | – | – | – | – | – | – | – | – |
